From patent US10889555B2, “Sulfonamide compound or salt thereof” (Taiho Pharmaceutical Co., Ltd., priority 2016, dated 2021)

tested on: HCC 1806 cells; test: Cell proliferation inhibitory effect on human breast cancer cell line (crystal violet, 72 hours); type: cell-based; details: Homo sapiens, HCC1806, 72 h, read-out: Cell growth suppression IC50
Procedure: Human derived breast cancer cell line HCC 1806 cells were daily passaged at a cell density not exceeding 80% in ATCC recommended Roswell Park Memorial Institute medium (RPMI-1640) containing 10% fetal bovine serum (FBS). In order to start the test of cell proliferation inhibitory activity, HCC 1806 cells were suspended in the above medium, after seeing at 180 μL in each well of a 96-well flat bottom plate so that the number of cells per well was 2,000, the cells were cultured at 37° C. for 1 day in an incubator containing 5% carbon dioxide gas. On the next day, the test compound was dissolved in DMSO, and 20 μL of a drug additive solution diluted serially with distilled water to 10 times of the final concentration was added to each well of the culture plate of the cells, and the cells were cultured at 37° C. for 72 hours in an incubator containing 5% carbon dioxide gas. After culturing for 72 hours, 20 μL of glutaraldehyde was added to each well and allowed to stand for 30 minutes, then the plate was washed 10 times with water and was dried. 100 μL of a stain solution (0.05% crystal violet in a 20% methanol solution) was added to each well and allowed to stand for 30 minutes, then the plate was washed 10 times with water and was dried. 100 μL of an extract solution (0.1 N NaH2PO4: 100% ethanol=1:1) was added to each well and mixed, and the mixture was measured at a wavelength of 540 nm using a plate reader (MTP-450 manufactured by Corona Electric Co., Ltd.). The growth inhibition rate was calculated from the following formula, and the concentration (IC50 (μM)) of a test compound inhibiting 50% was determined. Growth inhibition rate (%)={(C−B)−(T−B)}/(C−B)×100
T: Absorbance of well to which test compound was added
C: Absorbance of wells to which no test compound was added
B: Absorbance of wells to which no cell suspension was added

Row | IC50 | Compound
1 | 400 nM | C[C@H](c1c(F)ccc2ccccc12)[C@H](NS(=O)(=O)c1ccc(Br)cc1C(N)=O)c1n[nH]c(=O)o1 [Example 15, 5-bromo-2-(N-((1S,2R)-2-(2-fluoronaphthalen-1-yl)-1-(5-oxo-4,5-dihydro-1,3,4-oxadiazol-2-yl)propyl)sulfamoyl)benzamide]
2 | 580 nM | CCc1ccc(S(=O)(=O)N[C@H](c2n[nH]c(=O)o2)[C@H](C)c2c(F)ccc(C)c2C)c(C(N)=O)c1 [Example 18, 5-Ethyl-2-(N-((1S,2R)-2-(6-fluoro-2,3-dimethylphenyl)-1-(5-oxo-4,5-dihydro-1,3,4-oxadiazol-2-yl)propyl)sulfamoyl)benzamide]
3 | 940 nM | Cc1ccc(F)c([C@@H](C)[C@H](NS(=O)(=O)c2ccc(Cl)nc2C(N)=O)c2n[nH]c(=O)o2)c1C [Example 19, 6-Chloro-3-(N-((1S,2R)-2-(6-fluoro-2,3-dimethylphenyl)-1-(5-oxo-4,5-dihydro-1,3,4-oxadiazol-2-yl)propyl)sulfamoyl)picolinamide]
4 | 590 nM | Cc1c(Cl)ccc(F)c1[C@@H](C)[C@H](NS(=O)(=O)c1ccc(Br)cc1C(N)=O)c1n[nH]c(=O)o1 [Example 25, 5-bromo-2-(N-((1S,2R)-2-(3-chloro-6-fluoro 2 methylphenyl)-1-(5-oxo-4,5-dihydro-1,3,4-oxadiazol-2-yl)propyl)sulfamoyl)benzamide]
5 | 980 nM | Cc1c(C2CC2)ccc(F)c1[C@@H](C)[C@H](NS(=O)(=O)c1ccc(Cl)cc1C(N)=O)c1n[nH]c(=O)o1 [Example 26, 5-chloro-2-(N-((1S,2R)-2-(3-cyclopropy1-6-fluoro-2-methylphenyl)-1-(5-oxo-4,5-dihydro-1,3,4-oxadiazol-2-yl)propyl)sulfamoyl)benzamide]
6 | 800 nM | Cc1c(Br)ccc(F)c1[C@@H](C)[C@H](NS(=O)(=O)c1ccc(Cl)cc1C(N)=O)c1n[nH]c(=O)o1 [Example 30, 2-(N-((1S,2R)-2-(3-bromo-6-fluoro-2-methylphenyl)-1-(5-oxo-4,5-dihydro-1,3,4-oxadiazol-2-yl)propyl)sulfamoyl)-5-chlorobenzamide]
7 | 670 nM | Cc1c(Br)ccc(F)c1[C@@H](C)[C@H](NS(=O)(=O)c1ccc(Br)cc1C(N)=O)c1n[nH]c(=O)o1 [Example 35, 5-bromo-2-(N-((1S,2R)-2-(3-bromo-6-fluoro-2-methylphenyl)-1-(5-oxo-4,5-dihydro-1,3,4-oxadiazol-2-yl)propyl)sulfamoyl)benzamide]
8 | 820 nM | Cc1ccc(F)c([C@@H](C)[C@H](NS(=O)(=O)c2cc(C(=O)N(C)C)ccc2C(N)=O)c2n[nH]c(=O)o2)c1C [Example 37, 3-(N-((1S,2R)-2-(6-fluoro-2,3-dimethylphenyl)-1-(5-oxo-4,5-dihydro-1,3,4-oxadiazol-2-yl)propyl)sulfamoyl)-N1,N1-dimethylterephthalamide]
9 | 230 nM | Cc1ccc(F)c([C@@H](C)[C@H](NS(=O)(=O)c2cc(C(=O)N(C)C)c(Cl)cc2C(N)=O)c2n[nH]c(=O)o2)c1C [Example 39, 2-chloro-5-(N-((1S,2R)-2-(6-fluoro-2,3-dimethylphenyl)-1-(5-oxo-4,5-dihydro-1,3,4-oxadiazol-2-yl)propyl)sulfamoyl)-N1,N1-dimethyl terephthalamide]
10 | 590 nM | Cc1ccc(F)c([C@@H](C)[C@H](NS(=O)(=O)c2cnc(Cl)cc2C(N)=O)c2n[nH]c(=O)o2)c1C [Example 40, 2-chloro-5-(N-((1S,2R)-2-(6-fluoro-2,3-dimethylphenyl)-1-(5-oxo-4,5-dihydro-1,3,4-oxadiazol-2-yl)propyl)sulfamoyl)isonicotinamide]
11 | 400 nM | Cc1ccc(F)c([C@@H](C)[C@H](NS(=O)(=O)c2ccc(C(F)(F)F)cc2C(N)=O)c2n[nH]c(=O)o2)c1C [Example 41, 2-(N-((1S,2R)-2-(6-fluoro-2,3-dimethylphenyl)-1-(5-oxo-4,5 dihydro-1,3,4-oxadiazol-2-yl)propyl)sulfamoyl)-5-(trifluoromethyl)benzamide]
12 | 280 nM | [2H]C([2H])([2H])[C@H](c1c(F)ccc(C)c1C)[C@H](NS(=O)(=O)c1ccc(Cl)cc1C(N)=O)c1n[nH]c(=O)o1 [Example 43, 5-chloro-2-[[(1S,2R)-3,3,3-trideuterio-2-(6-fluoro-2,3-dimethylphenyl)-1-(2-oxo-3H-1,3,4-oxadiazol-5-yl)propyl]sulfamoyl]benzamide]
13 | 790 nM | COc1cc(Cl)ccc1S(=O)(=O)N[C@H](c1n[nH]c(=O)o1)[C@H](C)c1cccc2cccc(C)c12 [Example 71, 4-chloro-2-methoxy-N-((1S,2R)-2-(8-methylnaphthalen-1-yl)-1-(5-oxo-4,5-dihydro-1,3,4-oxadiazol-2-yl)propyl)benzenesulfonamide]
14 | 440 nM | COc1cc(Cl)ccc1S(=O)(=O)N[C@H](c1n[nH]c(=O)o1)[C@H](C)c1c(F)ccc2ccccc12 [Example 76, 4-chloro-N-((1S,2R)-2-(2-fluoronaphthalen-1-yl)-1-(5-oxo-4,5-dihydro-1,3,4-oxadiazol-2-yl)propyl)-2-methoxybenzenesulfonamide]
15 | 500 nM | COc1cc(Cl)ccc1S(=O)(=O)N[C@H](c1n[nH]c(=O)o1)[C@H](C)c1c(F)ccc(C)c1C [Example 83, 4-chloro-N-((1S,2R)-2-(6-fluoro-2,3-dimethylphenyl)-1-(5-oxo-4,5-dihydro-1,3,4-oxadiazol-2-yl)propyl)-2-methoxybenzenesulfonamide]
16 | 980 nM | Cc1ccc(F)c([C@@H](C)[C@H](NS(=O)(=O)c2ccc(Cl)cc2-c2ccno2)c2n[nH]c(=O)o2)c1C [Example 91, 4-chloro-N-((1S,2R)-2-(6-fluoro-2,3-dimethylphenyl)-1-(5-oxo-4,5-dihydro-1,3,4-oxadiazol-2-yl)propyl)-2-(isoxazol-5-yl)benzenesulfonamide]
17 | 280 nM | Cc1ccc(F)c([C@@H](C)[C@H](NS(=O)(=O)c2ccc(Cl)c3c2OCC(=O)N3C)c2n[nH]c(=O)o2)c1C [Example 93, 5-chloro-N-((1S,2R)-2-(6-fluoro-2,3-dimethylphenyl)-1-(5-oxo-4,5-dihydro-1,3,4-oxadiazol-2-yl)propyl)-4-methyl-3-oxo-3,4-dihydro-2H-benzo[b][1,4]oxazine-8-sulfonamide]
18 | 480 nM | CCN1CCOc2c(S(=O)(=O)N[C@H](c3n[nH]c(=O)o3)[C@H](C)c3c(F)ccc(C)c3C)ccc(Cl)c21 [Example 94, 5-chloro-4-ethyl-N-((1S,2R)-2-(6-fluoro-2,3-dimethylphenyl)-1-(5-oxo-4,5-dihydro-1,3,4-oxadiazol-2-yl)propyl)-3,4-dihydro-2H-benzo [b][1,4]oxazine-8-sulfonamide]
19 | 140 nM | CC(=O)OC1(C)CCOc2c(S(=O)(=O)N[C@H](c3n[nH]c(=O)o3)[C@H](C)c3c(F)ccc(C)c3C)ccc(Cl)c21 (stereo partly drawn) [Example 95, 5-chloro-8-(N-((1S,2R)-2-(6-fluoro-2,3-dimethylphenyl)-1-(5-oxo-4,5-dihydro-1,3,4-oxadiazol-2-yl)propyl)sulfamoyl)-4-methylchroman-4-yl acetate]
20 | 950 nM | CCc1ccc(F)c([C@@H](C)[C@H](NS(=O)(=O)c2ccc(Br)cc2C(N)=O)c2n[nH]c(=O)o2)c1C [Example 96, 5-bromo-2-(N-((1S,2R)-2-(3-ethyl-6-fluoro-2-methylphenyl)-1-(5-oxo-4,5-dihydro-1,3,4-oxadiazol-2-yl)propyl)sulfamoyl)benzamide]
21 | 390 nM | CC(=O)OC1(C)CCOc2c(S(=O)(=O)N[C@H](c3n[nH]c(=O)o3)[C@H](C)c3c(F)ccc(Cl)c3C)ccc(Cl)c21 (stereo partly drawn) [Example 100, 5-chloro-8-(N-((1S,2R)-2-(3-chloro-6-fluoro-2-methylphenyl)-1-(5-oxo-4,5-dihydro-1,3,4-oxadiazol-2-yl)propyl)sulfamoyl)-4-methylchroman-4-yl acetate]
22 | 810 nM | Cc1ccc(F)c([C@@H](C)[C@H](NS(=O)(=O)c2ccc(Cl)c3c2OCC(=O)N3CC(F)F)c2n[nH]c(=O)o2)c1C [Example 101, 5-chloro-4-(2,2-difluoroethyl)-N-((1S,2R)-2-(6-fluoro-2,3-dimethylphenyl)-1-(5-oxo-4,5-dihydro-1,3,4-oxadiazol-2-yl)propyl)-3-oxo-3,4-dihydro-2H-benzo[b][1,4]oxazine-8-sulfonamide]
23 | 660 nM | Cc1ccc(F)c([C@@H](C)[C@H](NS(=O)(=O)c2ccc(Cl)c3c2OCCN3CC(F)F)c2n[nH]c(=O)o2)c1C [Example 102, 5-chloro-4-(2,2-difluoroethyl)-N-((1S,2R)-2-(6-fluoro-2,3-dimethylphenyl)-1-(5-oxo-4,5-dihydro-1,3,4-oxadiazol-2-yl)propy1)-3,4-dihydro-2H-benzo[b][1,4]oxazine-8-sulfonamide]
24 | 380 nM | CC(=O)OC1(C(F)(F)F)CCOc2c1cccc2S(=O)(=O)N[C@H](c1n[nH]c(=O)o1)[C@H](C)c1c(F)ccc(C)c1C (stereo partly drawn) [Example 106, 8-(N-((1S,2R)-2-(6-fluoro-2,3-dimethylphenyl)-1-(5-oxo-4,5-dihydro-1,3,4-oxadiazol-2-yl)propyl)sulfamoyl)-4-(tifluoromethyl)chroman-4-yl acetate]
